Read-outs that look alike come from different tables or passages of the source. Numbered stars: 1 amine (or outer) side, 2 acyl side, 3 side chain; on linkers, the order of the positions; unused ones are H or OH. Bridge positions count the residues as written; N and C are the ends. Side chains are listed from the residue outwards. Peptide text beside a SMILES is read from it. * marks the point of attachment. C20 diacid = O=C(O)CCCCCCCCCCCCCCCCCCC(=O)*; γGlu = O=C(O)[C@H](CCC(=O)[*:2])N[*:1]
What was measured:
[1] = molecular target: T1, rat calcitonin receptor (Rattus norvegicus, UniProt P32214); test: ASSAY (VIII) binding to the rat calcitonin receptor; settings: Table 7, read-out: rCTR bind IC50
T1 construct: expressed in transfected cells; host or cells: BHK tk'ts 13 (transient, FuGENE 6), membranes
T1 sequence (P32214 25-479 isoform P32214-2 limits assumed): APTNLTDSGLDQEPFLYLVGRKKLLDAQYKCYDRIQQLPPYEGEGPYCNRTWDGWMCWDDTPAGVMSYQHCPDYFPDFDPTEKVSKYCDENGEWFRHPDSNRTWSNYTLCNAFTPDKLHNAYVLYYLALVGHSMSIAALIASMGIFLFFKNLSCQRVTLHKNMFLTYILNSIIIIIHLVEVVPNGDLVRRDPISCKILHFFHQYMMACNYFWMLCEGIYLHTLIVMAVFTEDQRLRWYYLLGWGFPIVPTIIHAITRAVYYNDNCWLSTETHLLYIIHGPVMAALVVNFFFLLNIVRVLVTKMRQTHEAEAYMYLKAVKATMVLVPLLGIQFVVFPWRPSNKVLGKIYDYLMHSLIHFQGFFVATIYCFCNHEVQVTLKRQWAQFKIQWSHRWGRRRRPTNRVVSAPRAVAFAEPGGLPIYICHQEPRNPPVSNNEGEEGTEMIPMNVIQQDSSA
Procedure, shortened: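 Membranes were prepared from BHK tk′ts 13 cells transiently transfected with rat calcitonin receptor. Cells were grown in DMEM with 10% FBS and harvested approximately 48 hours after transfection.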

[2] = molecular target: T2, rat amylin receptor (rat calcitonin receptor + rat RAMP 3) (Rattus norvegicus, UniProt P32214+Q9JJ73); test: ASSAY (VI) binding to the rat amylin receptor
T2 construct: expressed in transfected cells; host or cells: BHK tk'ts 13 (transient, FuGENE 6), membranes
T2 sequence (P32214 25-479 isoform P32214-2 limits assumed): T1 sequence (P32214 25-479 isoform P32214-2 limits assumed)
T2 sequence (Q9JJ73 23-147 partner): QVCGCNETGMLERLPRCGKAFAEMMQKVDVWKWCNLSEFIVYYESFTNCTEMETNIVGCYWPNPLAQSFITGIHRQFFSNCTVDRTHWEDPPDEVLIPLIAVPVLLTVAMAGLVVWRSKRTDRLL
Procedure, shortened: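 Binding to the rat amylin receptor was determined with membrane preparations. The receptor was expressed by transiently transfecting BHK tk′ts 13 cells with rat calcitonin receptor, using FuGENE® 6 (Roche) according to the manufacturer's recommendations. Roughly 48 hours later the cells were harvested and their membranes isolated.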

[3] = Table 7, binding to rat amylin receptor, read-out: rAmylin-R bind IC50
[4] = Table 7, rat binding selectivity, rCTR IC50 / rAmylin-R IC50
[5] = Table 7a (preferred compounds), rat binding selectivity, rCTR IC50 / rAmylin-R IC50
[6] = ratio of rCTR bind IC50 to rAmylin-R bind IC50

| IC50 [1] | IC50 [2, 3] | Ratio rCT/rAmylin binding [2, 4] | Ratio rCT/rAmylin binding [2, 5] | Ratio rCT/rAmylin binding [2, 6] | Compound | IC50 [2] |
| --- | --- | --- | --- | --- | --- | --- |
| 492 nM | 8.07 nM | 60.9 | 60.9 | 60.9 | CC[C@H](C)[C@H](NC(=O)[C@H](C)NC(=O)CNC(=O)[C@H](Cc1ccccc1)NC(=O)[C@H](CC(N)=O)NC(=O)[C@@H]1CCCN1C(=O)[C@H](CO)NC(=O)[C@H](CO)NC(=O)[C@H](Cc1c[nH]cn1)NC(=O)[C@H](CCCNC(=N)N)NC(=O)[C@H](CC(C)C)NC(=O)[C@H](Cc1ccccc1)NC(=O)[C@H](C)NC(=O)[C@H](C)NC(=O)[C@H](CC(C)C)NC(=O)[C@H](CCCNC(=N)N)NC(=O)[C@H](CCC(N)=O)NC(=O)[C@@H](NC(=O)[C@H](C)NC(=O)[C@@H]1CSSC[C@H](NC(=O)[C@H](CCCNC(=N)N)NC(=O)CNC(=O)CC[C@H](NC(=O)CCCCCCCCCCCCCCCCCCC(=O)O)C(=O)O)C(=O)N[C@@H](CC(N)=O)C(=O)N[C@@H]([C@@H](C)O)C(=O)N[C@@H](C)C(=O)N[C@@H]([C@@H](C)O)C(=O)N1)[C@@H](C)O)C(=O)N1CCC[C@H]1C(=O)N[C@@H](CO)C(=O)N[C@@H](CO)C(=O)N[C@H](C(=O)N[C@@H](CC(N)=O)C(=O)N[C@H](C(=O)NCC(=O)N[C@@H](Cc1c[nH]cn1)C(=O)N[C@@H](CC(N)=O)C(=O)N[C@H](C(=O)N[C@@H](Cc1ccc(O)cc1)C(N)=O)[C@@H](C)O)C(C)C)[C@@H](C)O [Example 101] ({C20 diacid-γGlu}-GRCNTATCATQRLAAFLRHSSPNFGAIPSSTNVGHNTY-NH2; disulfide 3-8) | – |
| 65.9 nM | 0.674 nM | 97.7 | 97.7 | 97.7 | CC[C@H](C)[C@H](NC(=O)[C@H](C)NC(=O)CNC(=O)[C@H](Cc1ccccc1)NC(=O)[C@H](CC(N)=O)NC(=O)[C@@H]1CCCN1C(=O)[C@H](CO)NC(=O)[C@H](CO)NC(=O)[C@H](Cc1c[nH]cn1)NC(=O)[C@H](CCCNC(=N)N)NC(=O)[C@H](CC(C)C)NC(=O)[C@H](Cc1ccccc1)NC(=O)[C@H](Cc1c[nH]cn1)NC(=O)[C@H](C)NC(=O)[C@H](CC(C)C)NC(=O)[C@H](CCCNC(=N)N)NC(=O)[C@H](CCC(N)=O)NC(=O)[C@@H](NC(=O)[C@H](C)NC(=O)[C@@H]1CSSC[C@H](NC(=O)[C@H](CCCNC(=N)N)NC(=O)CNC(=O)CC[C@H](NC(=O)CCCCCCCCCCCCCCCCCCC(=O)O)C(=O)O)C(=O)N[C@@H](CC(N)=O)C(=O)N[C@@H]([C@@H](C)O)C(=O)N[C@@H](C)C(=O)N[C@@H]([C@@H](C)O)C(=O)N1)[C@@H](C)O)C(=O)N1CCC[C@H]1C(=O)N[C@@H](CO)C(=O)N[C@@H](CO)C(=O)N[C@H](C(=O)N[C@@H](CC(N)=O)C(=O)N[C@H](C(=O)NCC(=O)N1CCC[C@H]1C(=O)N[C@@H](CC(N)=O)C(=O)N[C@H](C(=O)N[C@@H](Cc1ccc(O)cc1)C(N)=O)[C@@H](C)O)C(C)C)[C@@H](C)O [Example 102] ({C20 diacid-γGlu}-GRCNTATCATQRLAHFLRHSSPNFGAIPSSTNVGPNTY-NH2; disulfide 3-8 (inferred)) | – |
| 452 nM | 2.86 nM | 158.2 | 158.2 | 158.2 | CC[C@H](C)[C@H](NC(=O)[C@H](C)NC(=O)CNC(=O)[C@H](Cc1ccccc1)NC(=O)[C@H](CC(N)=O)NC(=O)[C@@H]1CCCN1C(=O)[C@H](CO)NC(=O)[C@H](CO)NC(=O)[C@H](Cc1c[nH]cn1)NC(=O)[C@H](CCCNC(=N)N)NC(=O)[C@H](CC(C)C)NC(=O)[C@H](Cc1ccccc1)NC(=O)[C@H](CCC(=O)O)NC(=O)[C@H](C)NC(=O)[C@H](CC(C)C)NC(=O)[C@H](CCCNC(=N)N)NC(=O)[C@H](CCC(N)=O)NC(=O)[C@@H](NC(=O)[C@H](C)NC(=O)[C@@H]1CSSC[C@H](NC(=O)[C@@H](N)CCCCNC(=O)CC[C@H](NC(=O)CC[C@H](NC(=O)CCCCCCCCCCCCCCCCCCC(=O)O)C(=O)O)C(=O)O)C(=O)N[C@@H](CC(N)=O)C(=O)N[C@@H]([C@@H](C)O)C(=O)N[C@@H](C)C(=O)N[C@@H]([C@@H](C)O)C(=O)N1)[C@@H](C)O)C(=O)N1CCC[C@H]1C(=O)N[C@@H](CO)C(=O)N[C@@H](CO)C(=O)N[C@H](C(=O)N[C@@H](CC(N)=O)C(=O)N[C@H](C(=O)NCC(=O)N[C@@H](CCCNC(=N)N)C(=O)N[C@@H](CCC(=O)O)C(=O)N[C@H](C(=O)N[C@@H](Cc1ccc(O)cc1)C(N)=O)[C@@H](C)O)C(C)C)[C@@H](C)O [Example 105] (H-K([γGlu-γGlu-C20 diacid])CNTATCATQRLAEFLRHSSPNFGAIPSSTNVGRETY-NH2; disulfide 2-7; N-terminus assumed) | – |
| 33.1 nM | 0.958 nM | 34.6 | 34.6 | 34.6 | CC[C@H](C)[C@H](NC(=O)[C@H](C)NC(=O)CNC(=O)[C@H](Cc1ccccc1)NC(=O)[C@H](CC(N)=O)NC(=O)[C@@H]1CCCN1C(=O)[C@H](CO)NC(=O)[C@H](CO)NC(=O)[C@H](Cc1c[nH]cn1)NC(=O)[C@H](CCCNC(=N)N)NC(=O)[C@H](CC(C)C)NC(=O)[C@H](Cc1ccccc1)NC(=O)[C@H](CCC(=O)O)NC(=O)[C@H](C)NC(=O)[C@H](CC(C)C)NC(=O)[C@H](CCCNC(=N)N)NC(=O)[C@H](CCC(N)=O)NC(=O)[C@@H](NC(=O)[C@H](C)NC(=O)[C@@H]1CSSC[C@H](NC(=O)[C@@H](N)CCCCNC(=O)CC[C@H](NC(=O)CCCCCCCCCCCCCCCCCCC(=O)O)C(=O)O)C(=O)N[C@@H](CC(N)=O)C(=O)N[C@@H]([C@@H](C)O)C(=O)N[C@@H](C)C(=O)N[C@@H]([C@@H](C)O)C(=O)N1)[C@@H](C)O)C(=O)N1CCC[C@H]1C(=O)N[C@@H](CO)C(=O)N[C@@H](CO)C(=O)N[C@H](C(=O)N[C@@H](CC(N)=O)C(=O)N[C@H](C(=O)NCC(=O)N[C@@H](Cc1c[nH]cn1)C(=O)N[C@@H](CCC(=O)O)C(=O)N[C@H](C(=O)N[C@@H](Cc1ccc(O)cc1)C(N)=O)[C@@H](C)O)C(C)C)[C@@H](C)O [Example 107] (H-K([γGlu-C20 diacid])CNTATCATQRLAEFLRHSSPNFGAIPSSTNVGHETY-NH2; disulfide 2-7 (inferred)) | – |

| Compound | IC50 [1] | IC50 [2, 3] | Ratio rCT/rAmylin binding [2, 4] | Ratio rCT/rAmylin binding [2, 5] | Ratio rCT/rAmylin binding [2, 6] | IC50 [2] |
| --- | --- | --- | --- | --- | --- | --- |
| CC[C@H](C)[C@H](NC(=O)[C@H](C)NC(=O)CNC(=O)[C@H](Cc1ccccc1)NC(=O)[C@H](CC(N)=O)NC(=O)[C@@H]1CCCN1C(=O)[C@H](CO)NC(=O)[C@H](CO)NC(=O)[C@H](Cc1c[nH]cn1)NC(=O)[C@H](CCCNC(=N)N)NC(=O)[C@H](CC(C)C)NC(=O)[C@H](Cc1ccccc1)NC(=O)[C@H](C)NC(=O)[C@H](C)NC(=O)[C@H](CC(C)C)NC(=O)[C@H](CCCNC(=N)N)NC(=O)[C@H](CCC(N)=O)NC(=O)[C@@H](NC(=O)[C@H](C)NC(=O)[C@@H]1CSSC[C@H](NC(=O)[C@@H](N)CCCCNC(=O)CC[C@H](NC(=O)CCCCCCCCCCCCCCCCCCC(=O)O)C(=O)O)C(=O)N[C@@H](CC(N)=O)C(=O)N[C@@H]([C@@H](C)O)C(=O)N[C@@H](C)C(=O)N[C@@H]([C@@H](C)O)C(=O)N1)[C@@H](C)O)C(=O)N1CCC[C@H]1C(=O)N[C@@H](CO)C(=O)N[C@@H](CO)C(=O)N[C@H](C(=O)N[C@@H](CC(N)=O)C(=O)N[C@H](C(=O)NCC(=O)N1CCC[C@H]1C(=O)N[C@@H](CC(N)=O)C(=O)N[C@H](C(=O)N[C@@H](Cc1ccc(O)cc1)C(N)=O)[C@@H](C)O)C(C)C)[C@@H](C)O [Example 94] (H-K([γGlu-C20 diacid])CNTATCATQRLAAFLRHSSPNFGAIPSSTNVGPNTY-NH2; disulfide 2-7 (inferred)) | 111 nM | 0.397 nM | 280.1 | 280.1 | 280.1 | – |
| CC[C@H](C)[C@H](NC(=O)[C@H](C)NC(=O)CNC(=O)[C@H](Cc1ccccc1)NC(=O)[C@H](CC(N)=O)NC(=O)[C@@H]1CCCN1C(=O)[C@H](CO)NC(=O)[C@H](CO)NC(=O)[C@H](Cc1c[nH]cn1)NC(=O)[C@H](CCCNC(=N)N)NC(=O)[C@H](CC(C)C)NC(=O)[C@H](Cc1ccccc1)NC(=O)[C@H](C)NC(=O)[C@H](C)NC(=O)[C@H](CC(C)C)NC(=O)[C@H](CCCNC(=N)N)NC(=O)[C@H](CCC(N)=O)NC(=O)[C@@H](NC(=O)[C@H](C)NC(=O)[C@@H]1CSSC[C@H](NC(=O)[C@H](CCCNC(=N)N)NC(=O)CNC(=O)CC[C@H](NC(=O)CCCCCCCCCCCCCCCCCCC(=O)O)C(=O)O)C(=O)N[C@@H](CC(N)=O)C(=O)N[C@@H]([C@@H](C)O)C(=O)N[C@@H](C)C(=O)N[C@@H]([C@@H](C)O)C(=O)N1)[C@@H](C)O)C(=O)N1CCC[C@H]1C(=O)N[C@@H](CO)C(=O)N[C@@H](CO)C(=O)N[C@H](C(=O)N[C@@H](CC(N)=O)C(=O)N[C@H](C(=O)NCC(=O)N1CCC[C@H]1C(=O)N[C@@H](CC(N)=O)C(=O)N[C@H](C(=O)N[C@@H](Cc1ccc(O)cc1)C(N)=O)[C@@H](C)O)C(C)C)[C@@H](C)O [Example 103] ({C20 diacid-γGlu}-GRCNTATCATQRLAAFLRHSSPNFGAIPSSTNVGPNTY-NH2; disulfide 3-8) | 56.3 nM | – | 129.1 | 129.1 | 129.1 | 0.436 nM |
